In one assay the target is T1, Type II 5α-reductase (Homo sapiens, UniProt P31213).
T1 construct: made in house; host or cells: COS7 cells (ATCC, CRL 1651), transient transfection with pSG5; 100,000×g pellet of the lysate
T1 sequence (P31213 1-254): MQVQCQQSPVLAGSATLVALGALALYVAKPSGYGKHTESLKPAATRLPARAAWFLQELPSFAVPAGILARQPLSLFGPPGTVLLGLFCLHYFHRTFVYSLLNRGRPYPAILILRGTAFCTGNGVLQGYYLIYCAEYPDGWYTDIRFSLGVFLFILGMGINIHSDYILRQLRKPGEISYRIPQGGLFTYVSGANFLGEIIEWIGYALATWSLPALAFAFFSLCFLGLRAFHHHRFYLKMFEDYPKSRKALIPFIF
Kind of assay: Inhibition of type II 5α-reductase (14C-testosterone to dihydrotestosterone, transfected COS7 cell lysate). Format: biochemical. An excerpt: (§1) The coding sequences (complementary deoxyribonucleic acids: cDNAs) of 5α-reductase I and of 5α-reductase II were cloned into the eukaryotic expression vector pSG5 (Stratagene). The enzymes were overexpressed after transient transfection of COS7 cells (ATCC, CRL 1651). The 5α-reductase I and 5α-reductase II cDNAs were obtained by reverse transcription and polymerase chain reaction (PCR) using specific primers from human testicle total RNA (marketed by Clontech).
The primers (SEQ ID NOS.: 3 and 4) used to obtain the 5α-reductase II cDNA were:
+strand: 5′GCGATGCAGGTTCAGTG 3′,
−strand: 5′ATTGTGGGAGCTCTGCT 3′.
(§2) The 5α-reductase I cDNA obtained was inserted, by standard genetic engineering techniques, into the BamHI site of pSG5 and the 5α-reductase II cDNA obtained was inserted into the EcoRI site (see Maniatis et al., Molecular Cloning, Cold Spring Harbor, 1989). […]
(§3) The reaction mixtures were then deposited directly on a silica plate (HPTLC, 60F 254, Merck) and subjected to chromatography (solvent=10% diethyl ether, 90% dichloromethane). They were then analyzed by digital autoradiography (Digital Autoradiography, Berthold).
(§4) The inhibition of the activity of the isoenzymes was measured by calculating the percentage of dihydrotestosterone formed from ^14C-testosterone relative to an untreated control.

The next assay has as its target T2, Type I 5α-reductase (Homo sapiens, UniProt P18405).
T2 construct: made in house; host or cells: COS7 cells (ATCC, CRL 1651), transient transfection with pSG5; 100,000×g pellet of the lysate
T2 sequence (P18405 1-259): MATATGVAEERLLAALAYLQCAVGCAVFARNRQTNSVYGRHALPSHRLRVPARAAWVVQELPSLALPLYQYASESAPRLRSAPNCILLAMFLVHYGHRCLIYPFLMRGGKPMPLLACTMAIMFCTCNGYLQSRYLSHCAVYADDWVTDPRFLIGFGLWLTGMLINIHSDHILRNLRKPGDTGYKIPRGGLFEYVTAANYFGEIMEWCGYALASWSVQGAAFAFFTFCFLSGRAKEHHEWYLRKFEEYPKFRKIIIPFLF
Kind of assay: Inhibition of type I 5α-reductase (14C-testosterone to dihydrotestosterone, transfected COS7 cell lysate). Format: biochemical.
Description: as §1
The primers (SEQ ID NOS.: 1 and 2) used to obtain the 5α-reductase I cDNA were:
+strand: 5′[…] 3′,
−strand: 5′[…] 3′.
as §2, §3, §4

Experimental findings from patent US6541507B1, “Indolecarboxylic compounds for inducing/stimulating hair growth and/or retarding hair loss” (Societe L'Oreal S.A., priority 1999, dated 2003) are described below.

On to `COc1cc(OC)c2cc(C(=O)O)[nH]c2c1` [4,6-dimethoxyindole-2-carboxylic acid], for which the IC50 (in general, the midpoint of a concentration-inhibition curve) against Type II 5α-reductase (40 mM pH 5.5 citrate buffer, 1 nM 14C-testosterone, 5 mM NADPH, 50 minutes at 37° C.) is over 50 µM; on Type I 5α-reductase (40 mM pH 6.5 phosphate buffer, 1 nM 14C-testosterone, 5 mM NADPH, 50 minutes at 37° C.), 50 µM. Further, at Type II 5α-reductase (statement in words), the “inhibitory effect on the 5α-reductases (type II)” value is “no inhibitory effect”. In addition, on Type I 5α-reductase (statement in words), the “inhibitory effect on the 5α-reductases (type I)” value is recorded as “no inhibitory effect”.
